Tested on: 945468-187-T-J2-PDC spheroids viability
Assay: Anticancer human tumor 945468-187-T-J2-PDC patient-derived rectal carcinoma cell line growth inhibition [PI3K]
Details: spheroids with HUVEC and MSC; for IC50: curve of first compound; for viability, T/C: stronger effect = lower value; active = viability on the fitted dose curve at most 10% of control; inactive = the rest
In short: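 High-throughput combination screen: PI3K inhibitors crossed with targeted small molecules on complex spheroids of tumor cells, HUVEC and MSCs at 37 degrees C, 5% CO2. Top concentration was at or near clinical Cmax (otherwise 10 microM), with half-log decrements.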
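Note: spheroids exposed to compounds for seven days before reading.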

C#Cc1c(F)ccc2cc(O)cc(-c3ncc4c(N5CC6CCC(C5)N6)nc(OCC56CCCN5CC(F)C6)nc4c3F)c12 (configuration not stated) + CC(Nc1ncnc2nc[nH]c12)c1cc2cccc(Cl)c2c(=O)n1-c1ccccc1
inactive: viability, T/C (second compound 0.0316 µM, first compound 0.0316 µM) 101% | viability, T/C (second compound 0.0316 µM, first compound 0.1 µM) 99.8% | viability, T/C (second compound 0.0316 µM, first compound 0.316 µM) 95.8% | viability, T/C (second compound 0.0316 µM, first compound 1 µM) 86.4% | viability, T/C (second compound 0.0316 µM, first compound 3.16 µM) 102% | viability, T/C (second compound 0.0316 µM, first compound 10 µM) 117% | viability, T/C (second compound 0.1 µM, first compound 0.0316 µM) 111% | viability, T/C (second compound 0.1 µM, first compound 0.1 µM) 110% | viability, T/C (second compound 0.1 µM, first compound 0.316 µM) 103% | viability, T/C (second compound 0.1 µM, first compound 1 µM) 134% | viability, T/C (second compound 0.1 µM, first compound 3.16 µM) 107% | viability, T/C (second compound 0.1 µM, first compound 10 µM) 106% | viability, T/C (second compound 0.316 µM, first compound 0.0316 µM) 100% | viability, T/C (second compound 0.316 µM, first compound 0.1 µM) 116% | viability, T/C (second compound 0.316 µM, first compound 0.316 µM) 87.1% | viability, T/C (second compound 0.316 µM, first compound 1 µM) 95.3% | viability, T/C (second compound 0.316 µM, first compound 3.16 µM) 116% | viability, T/C (second compound 0.316 µM, first compound 10 µM) 111% | viability, T/C (second compound 1 µM, first compound 0.0316 µM) 96.3% | viability, T/C (second compound 1 µM, first compound 0.1 µM) 104% | viability, T/C (second compound 1 µM, first compound 0.316 µM) 113% | viability, T/C (second compound 1 µM, first compound 1 µM) 106% | viability, T/C (second compound 1 µM, first compound 3.16 µM) 96.2% | viability, T/C (second compound 1 µM, first compound 10 µM) 114% | viability, T/C (second compound 3.16 µM, first compound 0.0316 µM) 91% | viability, T/C (second compound 3.16 µM, first compound 0.1 µM) 98.6% | viability, T/C (second compound 3.16 µM, first compound 0.316 µM) 107% | viability, T/C (second compound 3.16 µM, first compound 1 µM) 125% | viability, T/C (second compound 3.16 µM, first compound 3.16 µM) 114% | viability, T/C (second compound 3.16 µM, first compound 10 µM) 105% | viability, T/C (second compound 10 µM, first compound 0.0316 µM) 114% | viability, T/C (second compound 10 µM, first compound 0.1 µM) 140% | viability, T/C (second compound 10 µM, first compound 0.316 µM) 149% | viability, T/C (second compound 10 µM, first compound 1 µM) 99.7% | viability, T/C (second compound 10 µM, first compound 3.16 µM) 116% | viability, T/C (second compound 10 µM, first compound 10 µM) 112%
> 10 µM: IC50 (second compound 0.0316 µM) | IC50 (second compound 0.1 µM) | IC50 (second compound 0.316 µM) | IC50 (second compound 1 µM) | IC50 (second compound 3.16 µM) | IC50 (second compound 10 µM)

— PubChem BioAssay AID1963972 (Molecular Pharmacology Branch, DTP, NCI, 2024)
